According to patent US20170283440A1, “CARM1 INHIBITORS AND USES THEREOF” (Epizyme, Inc., priority 2014, published 2017):
pIC50: −log10 of the molar value. Read-outs that look alike come from different tables or passages of the source.

Assays:
[1] = target: T1, Human CARM1 (PRMT4) (Homo sapiens, UniProt Q86X55); assay: CARM1 enzyme assay on peptide substrate (3H-SAM Flashplate); type: biochemical; conditions: CARM1 0.25 nM, 3H-SAM 30 nM, peptide 250 nM; read-out: Biochem IC50
T1 construct: Flag-CARM1-His was eluted with 200 ug/ml FLAG peptide in buffer A; made in house; host or cells: HEK 293F cells infected with recombinant baculovirus (pFastBacMam)
Source text: S-adenosylmethionine (SAM), S-adenosylhomocysteine (SAH), bicine, Tween20, dimethylsulfoxide (DMSO), bovine skin gelatin (BSG), sodium butyrate and Tris(2-carboxyethyl)phosphine hydrochloride solution (TCEP) were purchased from Sigma-Aldrich at the highest level of purity possible. ^3H-SAM was purchase from American Radiolabeled Chemicals with a specific activity of 80 Ci/mmol. 384-well streptavidin Flashplates were purchased from PerkinElmer.
Peptide representative of human histone H3 residues 16-30 was synthesized with an N-terminal linker-affinity tag motif and a C-terminal amide cap by 21st Century Biochemicals. The peptide was purified by high-performance liquid chromatography (HPLC) to greater than 95% purity and confirmed by liquid chromatography mass spectrometry (LC-MS). The sequence was Biot-Ahx-[…]-amide and contained a monomethylated arginine at position 26 (SEQ ID NO.:1).
Human CARM1 (PRMT4) (NM_199141.1) transcript clone was amplified from an HEK 293 cDNA library, incorporating a flanking 5′ sequence encoding a FLAG tag ([…]) (SEQ ID NO.:2) fused directly to Ala 2 of CARM1 and 3′ sequence encoding a hexa His sequence ([…]) (SEQ ID NO.:3) fused directly to Ser 608. The gene sequence encoding isoform1 containing a deletion of amino acids 539-561 was amplified subsequently and subcloned into pFastBacMam (Viva Biotech).
Recombinant baculovirus were generated according to Bac-to-Bac kit instructions (Life Technologies). Protein over-expression was accomplished by infecting exponentially growing HEK 293F cell culture at 1.3×10^6 cell/ml with virus (MOI=10) in the presence of 8 mM sodium butyrate. Infections were carried out at 37° C. for 48 hours, harvested by centrifugation, and stored at −80° C. for purification.
Column was washed with 500 mM NaCl in buffer A and Flag-CARM1-His was eluted with 200 ug/ml FLAG peptide in buffer A. Pooled fractions were dialyzed in 20 mM Tris, 150 mM NaCl, 5% glycerol and 1 mM DTT, pH 7.8. The purity of recovered protein was 94.
The assays were all performed in a buffer consisting of 20 mM Bicine (pH=7.6), 1 mM TCEP, 0.005% BSG, and 0.002% Tween 20, prepared on the day of use. Compounds in 100% DMSO (1 ul) were spotted into a polypropylene 384-well V-bottom plates (Greiner) using a Platemate Plus outfitted with a 384-channel head (Thermo Scientific). DMSO (1 ul) was added to Columns 11, 12, 23, 24, rows A-H for the maximum signal control and 1 ul of SAH, a known product and inhibitor of CARM1, was added to columns 11, 12, 23, 24, rows I—P for the minimum signal control. A cocktail (40 ul) containing the CARM1 enzyme was added by Multidrop Combi (Thermo-Fisher). The compounds were allowed to incubate with CARM1 for 30 min at room temperature, then a cocktail (10 ul) containing ^3H-SAM and peptide was added to initiate the reaction (final volume=51 ul). The final concentrations of the components were as follows: CARM1 was 0.25 nM, ^3H-SAM was 30 nM, peptide was 250 nM, SAH in the minimum signal control wells was 1 mM, and the DMSO concentration was 2%. The assays were stopped by the addition of non-radiolabeled SAM (10 ul) to a final concentration of 300 uM, which dilutes the ^3H-SAM to a level where its incorporation into the peptide substrate is no longer detectable. 50 ul of the reaction in the 384-well polypropylene plate was then transferred to a 384-well Flashplate and the biotinylated peptides were allowed to bind to the streptavidin surface for at least 1 hour before being washed once with 0.1% Tween20 in a Biotek ELx405 plate washer. The plates were then read in a PerkinElmer TopCount plate reader to measure the quantity of ^3H-labeled peptide bound to the Flashplate surface, measured as disintegrations per minute (dpm) or alternatively, referred to as counts per minute (cpm).
where dpm=disintegrations per minute, cmpd=signal in assay well, and min and max are the respective minimum and maximum signal controls. […]

[2] = system: asymmetric di-methyl PABP1 in RKO cells; assay: RKO methylation assay (In Cell Western for asymmetric di-methyl PABP1); type: cell-based; conditions: 48 hours incubation, read-out: Cellular IC50
Source text: RKO adherent cells were purchased from ATCC (American Type Culture Collection), Manassas, Va., USA. DMEM/Glutamax medium, penicillin-streptomycin, heat inactivated fetal bovine serum, 0.05% trypsin and D-PBS were purchased from Life Technologies, Grand Island, N.Y., USA. Odyssey blocking buffer, 800CW goat anti-rabbit IgG (H+L) antibody, and Licor Odyssey infrared scanner were purchased from Licor Biosciences, Lincoln, Nebr., USA. Asymmetric di-methyl PABP1 antibody was purchased from Cell Signaling Technology, Danvers, Mass., USA. Methanol was purchased from VWR, Franklin, Mass., USA. 10% Tween 20 was purchased from KPL, Inc., Gaithersburg, Md., USA. Paraformaldehyde (PFA) was purchased from EM Sciences. DRAQ5 was purchased from Biostatus Limited, Leicestershire, UK.
RKO adherent cells were maintained in growth medium (DMEM/Glutamax medium supplemented with 10% v/v heat inactivated fetal bovine serum and 100 units/mL penicillin-streptomycin) and cultured at 37° C. under 5% CO2.
Compound (100 nL) from a 96-well source plate was added directly to 384 well cell plate. Plates were incubated at 37° C., 5% CO2 for 48 hours. After two days of incubation, plates were brought to room temperature outside of the incubator for ten minutes and blotted on paper towels to remove cell media. Cells were fixed for 20 minutes at room temperature by adding 50 ul of 8% PFA followed by aspiration of supernatant with the Biotek EL406 plate washer. Cells were then permeabilized by addition of 50 μL of ice cold 100% methanol directly to each well and incubated for 30 min at room temperature. After 30 min, plates were transferred to a Biotek EL406 plate washer and washed 2 times with 100 μL per well of wash buffer (IX PBS). Next 60 μL per well of Odyssey blocking buffer (Odyssey Buffer with 0.1% Tween 20 (v/v)) were added to each plate and incubated 1 hour at room temperature. Blocking buffer was removed and 20 μL per well of primary antibody was added (asymmetric-methyl PABP1) diluted 1:400 in Odyssey buffer with 0.1% Tween 20 (v/v)) and plates were incubated overnight (16 hours) at 4° C. Plates were washed 5 times with 100 μL per well of wash buffer. Next 20 μL per well of secondary antibody was added (1:800 800CW goat anti-rabbit IgG (H+L) antibody, 1:2000 DRAQ5 in Odyssey buffer with 0.1% Tween 20 (v/v)) and incubated for 1 hour at room temperature. The plates were washed 5 times with 100 μL per well wash buffer then 2 times with 100 μL per well of water. Plates were allowed to dry at room temperature then imaged on the Licor Odyssey machine which measures integrated intensity at 700 nm and 800 nm wavelengths. Both 700 and 800 channels were scanned.
First, the ratio for each well was determined by:
Each plate included fourteen control wells of DMSO only treatment (minimum inhibition) as well as fourteen control wells for maximum inhibition treated with 20 μM of a reference compound. The average of the ratio values for each control type was calculated and used to determine the percent […] for each test well in the plate. Reference compound was serially diluted three-fold in DMSO for a total of nine test concentrations, beginning at 20 μM.
Percent inhibition was determined and IC50 curves were generated using triplicate wells per concentration of compound.

T1 sequence (Q86X55 other isoform, or with tags, fused parts or gaps): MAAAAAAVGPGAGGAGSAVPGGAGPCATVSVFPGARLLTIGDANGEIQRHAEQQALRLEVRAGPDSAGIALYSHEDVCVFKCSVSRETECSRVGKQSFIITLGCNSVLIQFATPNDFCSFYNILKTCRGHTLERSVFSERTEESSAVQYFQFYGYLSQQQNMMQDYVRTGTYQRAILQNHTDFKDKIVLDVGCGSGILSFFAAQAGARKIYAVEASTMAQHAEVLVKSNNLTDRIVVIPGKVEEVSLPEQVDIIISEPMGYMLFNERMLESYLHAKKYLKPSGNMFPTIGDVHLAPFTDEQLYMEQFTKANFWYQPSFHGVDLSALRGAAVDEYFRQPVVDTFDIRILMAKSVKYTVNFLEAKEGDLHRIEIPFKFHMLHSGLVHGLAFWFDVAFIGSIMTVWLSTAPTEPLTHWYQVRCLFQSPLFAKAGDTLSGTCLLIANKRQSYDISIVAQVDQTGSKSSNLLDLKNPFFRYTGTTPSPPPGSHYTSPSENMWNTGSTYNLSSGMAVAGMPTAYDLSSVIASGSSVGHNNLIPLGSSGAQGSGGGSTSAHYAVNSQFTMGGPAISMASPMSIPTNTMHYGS

Structure (SMILES)	pIC50 [1]	pIC50 ([2]; Homo sapiens)	pIC50 [2]
CNCC(O)COc1cc(OC)cc(-c2cc(NC3CCOCC3)c3c(C)nn(C(C)C)c3n2)c1 (stereo not shown) [Example 20-4]	> 7.00	4.70 to 5.00	–
CNCC(O)COc1cccc(-c2nc(N3CCOCC3)c3cnn(C(C)C)c3n2)c1 (stereo not shown) [Example 8-5]	> 7.00	4.70 to 5.00	–
CNCC(O)COc1cc(Cl)cc(-c2cc(N3C4CCC3COC4)n3ncc(C(C)C)c3n2)c1 (stereo not shown) [Example 46-6]	> 7.00	< 4.70	–
CC(C)n1ncc2c(NC3CCOC3)nc(-c3cccc(OCC(O)CN)c3)nc21 (stereo not shown) [Example 7-5]	> 7.00	< 4.70	–
CNCC(O)COc1cc(NC)cc(-c2cc(N(C)C3CCOCC3)c3cnn(C(C)C)c3n2)c1 (stereo not shown) [Example 19-4]	> 7.00	5.00 to 5.30	–
CNCC(O)COc1cc(-c2cc(N3CCOCC3)c3cnn(C(C)C)c3n2)cc(C2CC2)c1 (stereo not shown) [Example 12-4]	6.00 to 7.00	< 4.70	–
CNCC(O)COc1cccc(-c2nc(NCc3cc(C)on3)c3cnn(C4CC4)c3n2)c1 (stereo not shown) [Example 19-9]	6.00 to 7.00	< 4.70	–
CNCC(O)COc1cc(OC)cc(-c2cc(N(C)[C@H]3CCOC3)n3ncc(C(C)C)c3n2)c1 (stereo partly shown) [Example 36-6]	> 7.00	< 4.70	–
CC(C)n1ncc2c(N[C@@H]3CO[C@H]4OCC[C@H]43)cc(-c3cccc(OCC(O)CN)c3)nc21 (stereo partly shown) [Example 5-8]	> 7.00	< 4.70	–
CNCC(O)COc1cc(OC)cc(-c2cc(N(C)[C@@H]3CCOC3)n3ncc(C(C)C)c3n2)c1 (stereo partly shown) [Example 35-6]	> 7.00	< 4.70	–
CNCC(O)COc1cc(NC)cc(-c2cc(N3CCOCC3)n3ncc(C(C)C)c3n2)c1 (stereo not shown) [Example 21-6]	> 7.00	< 4.70	–
CNCC(O)COc1cc(OC)cc(-c2cc(N3CCOCC3)n3ncc(C(=O)OC)c3n2)c1 (stereo not shown) [Example 17-8]	> 7.00	4.70 to 5.00	–
CNCC(O)COc1cc(Cl)cc(-c2cc(N(C)C3CCOCC3)n3ncc(C4CC4)c3n2)c1 (stereo not shown) [Example 1-9]	> 7.00	< 4.70	–
CNCC(O)COc1cc(-c2cc(NC3CCOCC3)c3cnn(C(C)C)c3n2)cc(C2CC2)c1 (stereo not shown) [Example 16-4]	> 7.00	< 4.70	–
CNCC(O)COc1cc(OC)cc(-c2cc(N3[C@@H]4CC[C@@H]3COC4)c3cnn(C(C)C)c3n2)c1 (stereo partly shown) [Example 17-4]	> 7.00	4.70 to 5.00	–
CNCC(O)COc1cc(OC)cc(-c2cc(Nc3ncccn3)n3ncc(C(C)C)c3n2)c1 (stereo not shown) [Example 31-6]	> 7.00	< 4.70	–

Structure (SMILES)	pIC50 [1]	pIC50 ([2]; Homo sapiens)	pIC50 [2]
CNCC(O)COc1cccc(-c2cc(NCCCCCNC(=O)c3ccn(C)n3)c3cnn(C(C)C)c3n2)c1 (stereo not shown) [Example 64-1]	6.00 to 7.00	4.70 to 5.00	–
CNCC(O)COc1cc(OC)cc(-c2cc(NC3CCOCC3)c3cnn(C(C)C)c3n2)c1 (stereo not shown) [Example 14-4]	> 7.00	< 4.70	–
CNCC(O)COc1cc(OC)cc(-c2cc(N3CC4CCC(C3)O4)n3ncc(C(C)C)c3n2)c1 (stereo not shown) [Example 43-6]	6.00 to 7.00	< 4.70	–
CC(C)n1ncc2c(N3CCOCC3)cc(-c3cc(F)cc(OCC(O)CN)c3)nc21 (stereo not shown) [Example 7-8]	> 7.00	< 4.70	–
NCC(O)COc1cccc(-c2nc(NCc3cccc4ccnn34)c3cnn(C4CC4)c3n2)c1 (stereo not shown) [Example 37-5]	> 7.00	< 4.70	–
CNCC(O)COc1cccc(-c2nc(NCc3ccccn3)c3cnn(C(C)(C)C)c3n2)c1 (stereo not shown) [Example 33-5]	> 7.00	< 4.70	–
CC(C)n1ncc2c(N3CCOCC3)cc(-c3cccc(CCC(O)CN)c3)nc21 (stereo not shown) [Example 31-9]	6.00 to 7.00	–	< 4.70
CC(C)(C)n1ncc2c(N3CCOCC3)nc(-c3cccc(OCC(O)CN)c3)nc21 (stereo not shown) [Example 9-5]	> 7.00	< 4.70	–
CNCC(O)COc1cc(Cl)cc(-c2cc(N(C)[C@H]3CCOC3)n3ncc(C(C)C)c3n2)c1 (stereo partly shown) [Example 41-6]	> 7.00	< 4.70	–
CNCC(O)COc1cc(OC)cc(-c2cc(N[C@@H]3CCOC3)n3ncc(C(C)C)c3n2)c1 (stereo partly shown) [Example 24-6]	> 7.00	< 4.70	–
CNCC(O)COc1cccc(-c2cc(N(C)[C@@H]3CCOC3)n3ncc(C(C)C)c3n2)c1 (stereo partly shown) [Example 13-6]	> 7.00	< 4.70	–
CNCC(O)COc1cc(O)cc(-c2cc(N3CCOCC3)c3cnn(C(C)C)c3n2)c1 (stereo not shown) [Example 6-4]	> 7.00	< 4.70	–
CNCC(O)COc1cc(OC)cc(-c2cc(N(C)C3CCOCC3)n3ncc(C4CC4)c3n2)c1 (stereo not shown) [Example 2-9]	> 7.00	< 4.70	–
Cc1nn(C(C)C)c2nc(-c3cccc(OCC(O)CN)c3)cc(N3CCOCC3)c12 (stereo not shown) [Example 1-2]	> 7.00	4.70 to 5.00	–
CC(C)n1ncc2c(N[C@@H]3CO[C@H]4OCC[C@H]43)cc(-c3cccc(OCC(O)CN)c3)nc21 (stereo partly shown) [Example 6-8]	> 7.00	–	< 4.70
CNCC(O)COc1cccc(-c2nc(NC3CCOCC3)c3cnn(C(C)(C)C)c3n2)c1 (stereo not shown) [Example 3-5]	> 7.00	–	5.00 to 5.30
